*1 amine or outer side, *2 acyl side, *3 side chain or, on linkers, in order; H or OH if unused. Where a SMILES comes first, the peptide text is derived from it. Side-chain parts run from the residue outwards. The star is where a group is joined. C18 diacid = O=C(O)CCCCCCCCCCCCCCCCC(=O)*; γGlu = O=C(O)[C@H](CCC(=O)[*:2])N[*:1]; AEEA = NCCOCCOCC(=O)O
Tests used:
Assay type in all cases: cell-based
human GLP-2R = molecular target: T1, human GLP-2R (Homo sapiens, UniProt O95838); experiment: cAMP assay (HitHunter) in transiently transfected COS-7 cells expressing human GLP-2R
T1 construct: host or cells: COS-7
T1 sequence (O95838 1-553): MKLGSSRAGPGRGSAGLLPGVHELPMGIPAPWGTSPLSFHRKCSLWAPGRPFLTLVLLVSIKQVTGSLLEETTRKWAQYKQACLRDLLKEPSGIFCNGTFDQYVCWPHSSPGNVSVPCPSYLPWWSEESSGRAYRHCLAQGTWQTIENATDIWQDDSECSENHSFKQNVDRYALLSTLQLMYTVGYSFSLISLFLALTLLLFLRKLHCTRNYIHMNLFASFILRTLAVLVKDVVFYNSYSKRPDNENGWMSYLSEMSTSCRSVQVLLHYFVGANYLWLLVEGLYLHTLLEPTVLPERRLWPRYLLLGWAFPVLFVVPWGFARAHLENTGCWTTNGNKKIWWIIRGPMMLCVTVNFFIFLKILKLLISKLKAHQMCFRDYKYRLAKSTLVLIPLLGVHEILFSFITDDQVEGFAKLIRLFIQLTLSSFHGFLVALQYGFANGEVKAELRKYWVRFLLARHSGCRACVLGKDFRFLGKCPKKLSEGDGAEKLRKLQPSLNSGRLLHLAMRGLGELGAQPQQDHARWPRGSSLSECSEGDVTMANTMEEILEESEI

[1] = molecular target: human glucagon receptor (GCGR) (Homo sapiens, UniProt P47871); experiment: Gs activation measured as cAMP accumulation on human glucagon receptor (FIG. 1 radar plot); settings: read-out: −p Log EC50 on human glucagon receptor (GCGR) (converted)
Sequence of human glucagon receptor (GCGR) (P47871 26-477): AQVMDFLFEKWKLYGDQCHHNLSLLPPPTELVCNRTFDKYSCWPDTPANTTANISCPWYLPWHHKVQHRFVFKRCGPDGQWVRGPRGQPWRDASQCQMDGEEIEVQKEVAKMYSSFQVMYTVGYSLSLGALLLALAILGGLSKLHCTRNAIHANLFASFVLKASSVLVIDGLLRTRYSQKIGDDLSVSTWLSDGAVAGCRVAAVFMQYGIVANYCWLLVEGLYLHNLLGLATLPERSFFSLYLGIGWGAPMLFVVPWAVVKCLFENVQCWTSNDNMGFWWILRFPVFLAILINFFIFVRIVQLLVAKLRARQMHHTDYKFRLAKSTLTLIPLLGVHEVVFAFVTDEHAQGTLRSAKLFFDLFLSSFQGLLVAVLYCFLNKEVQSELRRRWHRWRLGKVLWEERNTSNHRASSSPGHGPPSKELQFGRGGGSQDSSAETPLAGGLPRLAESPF
Source text: Here, the compounds 20, 21, 22, 28, 30, 31,32, 33, 34, 35 are shown in terms of their potencies in Gs activation, measured as CAMP accumulation, depicted in a radar plot. The numbers refer to −p Log EC50 values. […] The outer rings correspond to higher potencies, the inner rings correspond to lower potencies.

human SNAP-tagged GIPR = molecular target: T2, human SNAP-tagged GIPR (Homo sapiens, UniProt P48546); experiment: Receptor internalization assay, HEK293A cells expressing human SNAP-tagged GIPR
T2 construct: host or cells: HEK293A
T2 sequence (P48546 22-466): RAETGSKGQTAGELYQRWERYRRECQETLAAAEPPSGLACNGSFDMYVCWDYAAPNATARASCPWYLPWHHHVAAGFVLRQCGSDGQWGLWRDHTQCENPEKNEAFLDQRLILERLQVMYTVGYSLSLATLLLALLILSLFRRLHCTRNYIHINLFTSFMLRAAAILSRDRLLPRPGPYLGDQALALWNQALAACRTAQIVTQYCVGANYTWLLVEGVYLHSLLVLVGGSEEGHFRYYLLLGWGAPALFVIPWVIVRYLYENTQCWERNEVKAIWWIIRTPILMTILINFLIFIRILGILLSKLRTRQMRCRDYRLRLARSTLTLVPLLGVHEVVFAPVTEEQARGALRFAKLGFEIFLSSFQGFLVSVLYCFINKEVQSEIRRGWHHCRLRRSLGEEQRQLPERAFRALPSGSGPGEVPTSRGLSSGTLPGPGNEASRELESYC

human SNP-tagged GLP-2R = molecular target: T3, human SNP-tagged GLP-2R (Homo sapiens, UniProt O95838); experiment: Receptor internalization assay, HEK293A cells expressing human SNAP-tagged GLP-2R
T3 construct: expressed in transfected cells; host or cells: HEK293A
T3 sequence (O95838 1-553): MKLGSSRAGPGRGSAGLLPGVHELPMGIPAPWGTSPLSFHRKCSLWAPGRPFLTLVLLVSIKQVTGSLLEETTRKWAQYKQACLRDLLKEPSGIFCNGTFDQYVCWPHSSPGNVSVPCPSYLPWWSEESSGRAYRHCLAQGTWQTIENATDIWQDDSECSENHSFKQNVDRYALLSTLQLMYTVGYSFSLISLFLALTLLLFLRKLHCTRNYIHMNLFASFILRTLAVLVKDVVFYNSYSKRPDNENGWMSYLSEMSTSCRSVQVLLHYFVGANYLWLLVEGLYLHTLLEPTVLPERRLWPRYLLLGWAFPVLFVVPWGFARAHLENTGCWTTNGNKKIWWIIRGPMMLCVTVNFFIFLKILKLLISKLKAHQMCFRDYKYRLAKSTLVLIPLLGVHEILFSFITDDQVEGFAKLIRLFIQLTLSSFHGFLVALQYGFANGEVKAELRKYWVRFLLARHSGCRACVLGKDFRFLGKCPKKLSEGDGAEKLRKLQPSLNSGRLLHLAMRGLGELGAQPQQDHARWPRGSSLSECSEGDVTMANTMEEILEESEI

human GLP-1R = molecular target: T4, human GLP-1R (Homo sapiens, UniProt P43220); experiment: cAMP assay (HitHunter) in transiently transfected COS-7 cells expressing human GLP-1R; settings: COS-7; normalized to highest concentration of the endogenous ligand; read-out: Efficacy GLP-1R (Emax)
T4 construct: host or cells: COS-7
T4 sequence (P43220 24-463): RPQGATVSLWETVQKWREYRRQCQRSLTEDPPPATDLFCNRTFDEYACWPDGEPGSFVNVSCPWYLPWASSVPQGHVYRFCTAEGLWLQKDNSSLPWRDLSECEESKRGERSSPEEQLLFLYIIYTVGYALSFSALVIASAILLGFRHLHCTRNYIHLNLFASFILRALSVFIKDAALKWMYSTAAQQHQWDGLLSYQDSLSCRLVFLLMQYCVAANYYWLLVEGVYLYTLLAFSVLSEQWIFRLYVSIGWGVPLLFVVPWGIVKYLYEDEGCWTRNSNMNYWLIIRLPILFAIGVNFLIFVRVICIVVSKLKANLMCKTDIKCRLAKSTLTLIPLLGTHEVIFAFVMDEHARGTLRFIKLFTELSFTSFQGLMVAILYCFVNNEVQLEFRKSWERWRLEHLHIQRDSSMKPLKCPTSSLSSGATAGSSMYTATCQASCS

human SNAP-tagged GLP-1R = molecular target: T5, human SNAP-tagged GLP-1R (Homo sapiens, UniProt P43220); experiment: Receptor internalization assay, HEK293A cells expressing human SNAP-tagged GLP-1R
T5 construct: expressed in transfected cells; host or cells: HEK293A
T5 sequence (P43220 24-463): as above

human GIPR = molecular target: T6, human GIPR (Homo sapiens, UniProt P48546); experiment: cAMP assay (HitHunter) in transiently transfected COS-7 cells expressing human GIPR
T6 construct: host or cells: COS-7
T6 sequence (P48546 22-466): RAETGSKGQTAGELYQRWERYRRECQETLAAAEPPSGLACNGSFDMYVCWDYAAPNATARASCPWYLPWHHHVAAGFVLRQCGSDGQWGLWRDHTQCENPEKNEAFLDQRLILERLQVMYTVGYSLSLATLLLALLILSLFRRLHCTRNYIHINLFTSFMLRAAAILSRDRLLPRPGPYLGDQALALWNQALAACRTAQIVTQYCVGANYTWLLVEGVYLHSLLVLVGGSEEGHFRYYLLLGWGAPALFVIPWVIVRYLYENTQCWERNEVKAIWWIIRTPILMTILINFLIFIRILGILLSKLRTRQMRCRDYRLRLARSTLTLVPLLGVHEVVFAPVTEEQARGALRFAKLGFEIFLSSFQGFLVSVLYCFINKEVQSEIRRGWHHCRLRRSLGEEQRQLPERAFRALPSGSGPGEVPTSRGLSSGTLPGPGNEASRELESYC

[2] = AUC of sigmoid curves up to 1 μM, 60 minutes at 37° C.

Emax (human GLP-2R; COS-7, normalized to highest concentration of the endogenous ligand, read-out: Efficacy GLP-2R (Emax)): 77% | EC50 (human GLP-2R; cAMP, COS-7 cells, human GLP-2R, read-out: EC50 (nM) GLP-2R): 3.2 nM | EC50 [1]: > 100 nM | Absolute hGIPR internalization (AUC) (human SNAP-tagged GIPR; [2]): 6.5 | Relative hGIPR internalization (%) (human SNAP-tagged GIPR; relative to hGIP 1-42 = 100): 18% | Absolute hGLP-2R internalization (AUC) (human SNP-tagged GLP-2R; [2]): 15.0 | Relative hGLP-2R internalization (%) (human SNP-tagged GLP-2R; relative to native ligand = 100): 30.8% | Emax (human GLP-1R): 84% | Absolute hGLP-1R internalization (AUC) (human SNAP-tagged GLP-1R; [2]): 7.0 | Relative hGLP-1R internalization (%) (human SNAP-tagged GLP-1R; relative to hGLP-1 = 100): 8.3% | Emax (human GIPR; COS-7, normalized to highest concentration of the endogenous ligand, read-out: Efficacy GIPR (Emax)): 80% | loss in GIP potency in cAMP (human GIPR; fatty acid in position 17 compared to position 16 (Compound 30)): > 10 fold
Structure (SMILES): CC[C@H](C)[C@H](NC(=O)[C@H](Cc1ccccc1)NC(=O)[C@H](CC(=O)O)NC(=O)[C@H](CCCNC(=N)N)NC(=O)[C@H](C)NC(=O)[C@H](C)NC(=O)[C@H](CCCCNC(=O)COCCOCCNC(=O)COCCOCCNC(=O)CC[C@H](NC(=O)CCCCCCCCCCCCCCCCC(=O)O)C(=O)O)NC(=O)[C@H](CC(N)=O)NC(=O)[C@H](CC(=O)O)NC(=O)[C@H](CC(C)C)NC(=O)[C@@H](NC(=O)[C@@H](NC(=O)[C@H](CO)NC(=O)[C@H](Cc1ccc(O)cc1)NC(=O)[C@H](CC(=O)O)NC(=O)[C@H](CO)NC(=O)[C@@H](NC(=O)[C@H](Cc1ccccc1)NC(=O)[C@@H](NC(=O)CNC(=O)[C@H](CC(=O)O)NC(=O)[C@H](C)NC(=O)[C@@H](N)Cc1c[nH]cn1)[C@@H](C)O)[C@@H](C)CC)[C@@H](C)O)[C@@H](C)CC)C(=O)N[C@@H](CC(N)=O)C(=O)N[C@@H](Cc1c[nH]c2ccccc12)C(=O)N[C@@H](CC(C)C)C(=O)N[C@H](C(=O)N[C@@H](CCC(N)=O)C(=O)N[C@H](C(=O)N[C@@H](CCCCN)C(=O)NCC(=O)N[C@@H](CCCCN)C(=O)N[C@@H](CCCCN)C(=O)O)[C@@H](C)O)[C@@H](C)CC [Compound 32] (H-HADGTFISDYSTILDNK([AEEA-AEEA-γGlu-C18 diacid])AARDFINWLIQTKGKK-OH)

— patent US20250304644A1, “PEPTIDES TRIPLE AGONISTS OF GIP, GLP-1 AND GLP-2” (BAINAN BIOTECH APS, priority 2021, published 2025)
